Legend:
LanGT2 [1] = molecular target: T1, LanGT2 (Streptomyces cyanogenus, UniProt Q9ZGC0); experiment: X-ray crystal structure; assay type: binding; conditions: nucleotide-sugar site; TDP-olivose had broken down, product TDP bound
T1 sequence (Q9ZGC0 1-373): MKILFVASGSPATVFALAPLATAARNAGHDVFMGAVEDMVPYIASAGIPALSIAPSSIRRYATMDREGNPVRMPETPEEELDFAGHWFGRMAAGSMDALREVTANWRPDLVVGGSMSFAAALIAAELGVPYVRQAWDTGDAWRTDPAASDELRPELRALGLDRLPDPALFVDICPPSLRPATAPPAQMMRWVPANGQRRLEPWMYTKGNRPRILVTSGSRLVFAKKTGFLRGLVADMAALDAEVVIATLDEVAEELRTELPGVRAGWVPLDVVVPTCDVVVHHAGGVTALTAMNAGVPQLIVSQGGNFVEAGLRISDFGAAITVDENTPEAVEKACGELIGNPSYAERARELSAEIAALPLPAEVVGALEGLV

LanGT2 [2] = molecular target: T1, LanGT2; experiment: X-ray crystal structure; assay type: binding; conditions: non-hydrolyzable substrate analogue; nucleotide-sugar site; 1.85 Å

| SMILES | X-ray crystal structure (crystals treated with TDP-olivose) (LanGT2 [1]) | X-ray crystal structure (crystal soaking) (LanGT2 [2]) |
| --- | --- | --- |
| Cc1cn([C@H]2C[C@H](O)[C@@H](COP(=O)(O)OP(=O)(O)O)O2)c(=O)[nH]c1=O [TDP] | thus resulting in structures that invariably only had the product TDP bound | – |
| Cc1cn([C@H]2C[C@H](O)[C@@H](COP(=O)(O)OP(=O)(O)O[C@@H]3C[C@@H](O)[C@H](O)[C@@H](C)C3)O2)c(=O)[nH]c1=O [compound 8, TDP-carba-D-olivose] | – | LanGT2 crystals were soaked with the synthetic TDP-carba-D-olivose (TcO) |

Reference: article PMC4376353 (Angewandte Chemie (International ed. in English), 2015)
